Results as given in US20080261263A1, “In Vitro Evaluation of Micro-Organisms and Their Antimicrobial Agent Susceptibilities” (SYFT Technologies Limited, priority 2005, published 2008).
Values after ≈ are worked out from the molar mass of the structure shown.

Key:
S. aureus [1] = assay: Effect of antibiotic on S. aureus blood culture headspace VC production (SIFT-MS SIMscan); format: cell-based, Staphylococcus aureus; conditions: for Ammonia mean concentration / DMS mean concentration: S. aureus 6 h; for Aminoacetophenone mean concentration / Ethanol mean concentration / Formaldehyde mean concentration: S. aureus 22 h; for Inhibition of aminoacetophenone, ethanol and formaldehyde: S. aureus 22 hours; for Effect on production of ammonia and dimethylsulfide by S. aureus: six hours, flucloxacillin above and below its MIC
Text: (§1) In one form of the method headspace atmospheres are introduced above conventional Biomerieux BacT/ALERT® aerobic or anaerobic blood cultures at a controlled rate into the flow tube precursor ion stream. The count rates of the resulting product ions are then to be determined by a “downstream” quadrupole and particle multiplier detector. Operating in full scan mode, the detector quadrupole is scanned over a predetermined m/z range to obtain a spectrum of product ions. In selected ion mode (SIMscan) the count rate of selected product ions is determined as the downstream […] is switched to and remains on selected m/zs.
(§2) Standard Biomerieux (Durham, N.C., USA) BacT/ALERT® SA, FA and SN disposable, plastic culture bottles containing 40 ml of culture medium were used throughout the experiments. 9 ml of healthy, uninfected human blood and 1 ml aliquots of antibiotics prepared in sterile water were added (in the relevant experiments) as required to each bottle prior to the addition of 1 ml of bacterial species suspended in sterile physiological saline.
(§3) SIFT-MS mass scan studies comparing 24 hour BacT/ALERT®SA blood culture headspace VCs with medium+blood controls identified a test panel of SIM VC analytes suitable for the five bacterial species tested. These bacterial metabolites included acetaldehyde, acetic acid, acetone, 2-aminoacetophenone, ammonia, dimethyldisulfide (DMDS), dimethylsulfide (DMS), formaldehyde, ethanol, hydrogen sulfide, indole, methanethiol, pentanols and propanol. […] absolute concentration measurements in parts per billion (ppb v/v) were integrated, averaged and recorded separately for acetaldehyde, acetic acid, ethanol, acetone, ammonia, hydrogen sulfide, DMS and DMDS during each 30 second SIMscan for each triplicate culture of the five test species after incubation in BacT/ALERT aerobic media. The results are recorded in Table 1 (below).
(§4) Approximately 10^3 CFU E. coli or S. aureus were inoculated into Biomerieux BacT/ALERT® SA bottles including 9 ml of fresh uninfected blood. Each bacterial species was incubated in triplicate either alone or in the presence of antibiotics above or below their predetermined minimal inhibitory concentrations (MIC).
(§5) Gentamicin was added to E. coli cultures at either 2 μg/ml or 0.05 μg/ml (MIC 0.25-1 μg/m)l. Flucloxacillin was added to S. aureus cultures at 2 μg/ml or 0.05 μg/ml (MIC 0.12-0.5 μg/ml).
(§6) The mean, minima and maxima integrated headspace analyte concentration measurements obtained from E. coli and S. aureus cultures are compared in Tables 8 and 9.

S. aureus [2] = assay: Predetermined minimal inhibitory concentration (MIC) for S. aureus; format: cell-based; conditions: Staphylococcus aureus
E. coli [3] = assay: Predetermined minimal inhibitory concentration (MIC) for E. coli; format: cell-based, Escherichia coli
E. coli [4] = assay: Effect of antibiotic on E. coli blood culture headspace VC production (SIFT-MS SIMscan); format: cell-based, Escherichia coli
Text: as §1, §2, §3, §4, §5, §6

[5] = flucloxacillin <MIC (0.05 μg/ml)
[6] = E. coli 6 h, gentamicin <MIC (0.05 μg/ml)
[7] = E. coli 6 h, gentamicin >MIC (2 μg/ml)
[8] = E. coli 22 h, gentamicin <MIC (0.05 μg/ml)
[9] = E. coli 22 h, gentamicin >MIC (2 μg/ml)

## Cc1onc(-c2c(F)cccc2Cl)c1C(=O)N[C@@H]1C(=O)N2[C@@H]1SC(C)(C)[C@@H]2C(=O)O [Flucloxacillin]
S. aureus [1]; [5]
  Ammonia mean concentration: 40 ppb
  DMS mean concentration: 30 ppb
  Aminoacetophenone mean concentration: 200 ppb
  Ethanol mean concentration: 7500 ppb
  Formaldehyde mean concentration: 60 ppb
S. aureus [1]; flucloxacillin >MIC (2 μg/ml)
  Ammonia mean concentration: 50 ppb
  DMS mean concentration: 10 ppb
  Aminoacetophenone mean concentration: 60 ppb
  Ethanol mean concentration: 1900 ppb
  Formaldehyde mean concentration: 20 ppb
S. aureus [1]; flucloxacillin above its MIC, p<0.01
  Inhibition of aminoacetophenone, ethanol and formaldehyde: notable
S. aureus [1]; lower flucloxacillin concentration (below MIC)
  Inhibition of aminoacetophenone, ethanol and formaldehyde: not inhibitory
S. aureus [1]
  Effect on production of ammonia and dimethylsulfide by S. aureus: significantly reduced
S. aureus [1]; listed as flucloxacillin
  Effect on production of ammonia and dimethylsulfide by S. aureus: inhibited to uninoculated, antibiotic-containing control levels
S. aureus [2]
  MIC: 0.12 to 0.5 µg/mL (≈ 0.264 to 1.1 µM)

## Gentamicin
E. coli [3]
  MIC: 0.25 to 1 µg/mL
E. coli [4]; [6]
  Hydrogen sulfide mean concentration: 0 ppb
  Pentanols mean concentration: 120 ppb
E. coli [4]; [7]
  Hydrogen sulfide mean concentration: 0 ppb
  Pentanols mean concentration: 90 ppb
E. coli [4]; [8]
  Acetaldehyde mean concentration: 3300 ppb
  Acetic acid mean concentration: 1950 ppb
  Aminoacetophenone mean concentration: 900 ppb
  DMDS mean concentration: 380 ppb
  DMS mean concentration: 30 ppb
  Ethanol mean concentration: 42000 ppb
  Formaldehyde mean concentration: 140 ppb
  Hydrogen sulfide mean concentration: 1030 ppb
  Indole mean concentration: 210 ppb
  Methanethiol mean concentration: 1400 ppb
  Pentanols mean concentration: 220 ppb
  Propanol mean concentration: 5800 ppb
E. coli [4]; [9]
  Acetaldehyde mean concentration: 2700 ppb
  Acetic acid mean concentration: 600 ppb
  Aminoacetophenone mean concentration: 280 ppb
  DMDS mean concentration: 190 ppb
  DMS mean concentration: 30 ppb
  Ethanol mean concentration: 16000 ppb
  Formaldehyde mean concentration: 110 ppb
  Hydrogen sulfide mean concentration: 6 ppb
  Indole mean concentration: 110 ppb
  Methanethiol mean concentration: 150 ppb
  Pentanols mean concentration: 90 ppb
  Propanol mean concentration: 1700 ppb
E. coli [4]; E. coli 22 hours, gentamicin above its MIC, p<0.005
  Effect on production of all headspace VCs (except formaldehyde): significantly inhibited
E. coli [4]; E. coli 22 hours, gentamicin below its MIC, p<0.01
  Effect on most analytes (except hydrogen sulfide and methanethiol): Significant (p<0.01) reductions
E. coli [4]; six hours, both gentamicin concentrations
  Effect on production of hydrogen sulfide by E. coli: eliminated
